Experimental data taken from patent publication US3978225A, “Heterocyclic homoprostanoidal derivatives” (SmithKline Corporation, priority 1975, dated 1976).

Assays:
[1] = tested on: prostaglandin synthesis; test: Inhibition of prostaglandin synthesis (arachidonic acid-dependent formation of adrenochrome from L-epinephrine); assay type: biochemical; settings: for Inhibition of prostaglandin synthesis: 1000 μM; for IC50: read-out: ID50, inhibition of prostaglandin synthesis
Description: The prostaglandin synthesis inhibition method as employed is reported by Takeguchi and Sih, Prastaglandins, 2, 169, 1972. The principle entails the arachidonic acid-dependent formation of adrenochrome from L-epinephrine during prostaglandin biosynthesis. Indomethacin, phenylbutazone and aspirin were used as reference compounds.

[2] = tested on: diarrhea induced by prostaglandin E2 (PGE2); test: Inhibition of PGE2 diarrhea in mice; assay type: in vivo; settings: 15 minutes prior to i.p. PGE2
Method: The antagonism of diarrhea induced by prostaglandin E2 (PGE2) was determined by employing the modified standard animal pharmacological test procedure as reported in Intra Science Chem. Rept 6:1-9, 1972 and Annals of the New York Academy of Sciences 180:386-95, 1971. Briefly the test comprises administering the test compounds subcutaneously 15 minutes prior to an intraperitoneal injection of PGE2. Each animal is examined for diarrhea (which results after the administration of PGE2) every 15 minutes for one hour post-drug. Polyphloretin phosphate and 7 oxa-13-prostynoic acid, both well known antagonists of prostaglandin induced diarrhea, were employed as reference compounds. Results of tests conducted for the inhibition of PGE2 diarrhea in mice are disclosed in Table 2.

Molecule | Percent Change, Diarrhea Incidence ([2]; 5 mg/kg S.C.) | Percent Change, Diarrhea Incidence ([2]; 10 mg/kg S.C.) | Percent Change, Diarrhea Incidence ([2]; 20 mg/kg S.C.) | Percent Change, Diarrhea Incidence ([2]; 40 mg/kg S.C.) | IC50 [1] | other results
CCCCCCCC[C@@H]1OS(=O)O[C@H]1CCCCCCCC(=O)OC (relative stereo) [Compound C] | +15% | -31% | -54% | -8% | – | Inhibition of prostaglandin synthesis [1]: 20%
CCCCCCCC[C@@H]1SC(=S)S[C@H]1CCCCCCCC(=O)O (relative stereo) [Compound E, (8.xi.-trans)-10-thioxo-9,11-dithia-1a-homoprostan-1-oic acid] | – | – | – | – | 390 µM | –
CCCCCCCC[C@@H]1OCO[C@H]1CCCCCCCC(=O)O (relative stereo) [Compound F, (8.xi.-trans)-9,11-dioxa-1a-homoprostan-1-oic acid] | 0% | -36% | 0% | -14% | – | Inhibition of prostaglandin synthesis [1]: 30%
CCCCCCCC[C@@H]1OS(=O)O[C@@H]1CCCCCCCC(=O)OC (relative stereo) [Compound G, (8.xi.-cis)-10-oxo-9,11-dioxa-10-thia-1a-homoprostan-1-oic acid, methyl ester] | -14% | -29% | -57% | 0% | – | –
CCCCCCC#C[C@H]1CCC[C@@H]1OCCCCCC(=O)O [7-oxa-13-prostynoic acid, reference compound] | -100% | – | – | – | – | Percent Change, Diarrhea Incidence ([2]; 0.2 mg/kg S.C.): -15%; Percent Change, Diarrhea Incidence ([2]; 1 mg/kg S.C.): -100%
CC(=O)Oc1ccccc1C(=O)O [Aspirin, reference compound] | – | – | – | – | 3700 µM | –
COc1ccc2c(c1)c(CC(=O)O)c(C)n2C(=O)c1ccc(Cl)cc1 [Indomethacin, reference compound] | – | – | – | – | 2 µM | –
CCCCC1C(=O)N(c2ccccc2)N(c2ccccc2)C1=O [Phenylbutazone, reference compound] | – | – | – | – | 875 µM | –
polyphloretin phosphate [PPP, reference compound] | -4% | -26% | -36% | -65% | – | Percent Change, Diarrhea Incidence ([2]; 80 mg/kg S.C.): -68%
